Laboratory results published in doi:10.1101/208439v1 (biorxiv, 2017).

Tests used:
[1] = target: T1, NSD2 (Homo sapiens, UniProt O96028); assay: biochemical; parameters: MTase-Glo bioluminescence methyltransferase assay, full-length NSD2 with HeLa nucleosomes; details: read-out: MTase-Glo IC50
T1 construct: full length (residues 2-1365), N-terminal His tag, insect cell/baculovirus
T1 sequence (O96028 2-1365): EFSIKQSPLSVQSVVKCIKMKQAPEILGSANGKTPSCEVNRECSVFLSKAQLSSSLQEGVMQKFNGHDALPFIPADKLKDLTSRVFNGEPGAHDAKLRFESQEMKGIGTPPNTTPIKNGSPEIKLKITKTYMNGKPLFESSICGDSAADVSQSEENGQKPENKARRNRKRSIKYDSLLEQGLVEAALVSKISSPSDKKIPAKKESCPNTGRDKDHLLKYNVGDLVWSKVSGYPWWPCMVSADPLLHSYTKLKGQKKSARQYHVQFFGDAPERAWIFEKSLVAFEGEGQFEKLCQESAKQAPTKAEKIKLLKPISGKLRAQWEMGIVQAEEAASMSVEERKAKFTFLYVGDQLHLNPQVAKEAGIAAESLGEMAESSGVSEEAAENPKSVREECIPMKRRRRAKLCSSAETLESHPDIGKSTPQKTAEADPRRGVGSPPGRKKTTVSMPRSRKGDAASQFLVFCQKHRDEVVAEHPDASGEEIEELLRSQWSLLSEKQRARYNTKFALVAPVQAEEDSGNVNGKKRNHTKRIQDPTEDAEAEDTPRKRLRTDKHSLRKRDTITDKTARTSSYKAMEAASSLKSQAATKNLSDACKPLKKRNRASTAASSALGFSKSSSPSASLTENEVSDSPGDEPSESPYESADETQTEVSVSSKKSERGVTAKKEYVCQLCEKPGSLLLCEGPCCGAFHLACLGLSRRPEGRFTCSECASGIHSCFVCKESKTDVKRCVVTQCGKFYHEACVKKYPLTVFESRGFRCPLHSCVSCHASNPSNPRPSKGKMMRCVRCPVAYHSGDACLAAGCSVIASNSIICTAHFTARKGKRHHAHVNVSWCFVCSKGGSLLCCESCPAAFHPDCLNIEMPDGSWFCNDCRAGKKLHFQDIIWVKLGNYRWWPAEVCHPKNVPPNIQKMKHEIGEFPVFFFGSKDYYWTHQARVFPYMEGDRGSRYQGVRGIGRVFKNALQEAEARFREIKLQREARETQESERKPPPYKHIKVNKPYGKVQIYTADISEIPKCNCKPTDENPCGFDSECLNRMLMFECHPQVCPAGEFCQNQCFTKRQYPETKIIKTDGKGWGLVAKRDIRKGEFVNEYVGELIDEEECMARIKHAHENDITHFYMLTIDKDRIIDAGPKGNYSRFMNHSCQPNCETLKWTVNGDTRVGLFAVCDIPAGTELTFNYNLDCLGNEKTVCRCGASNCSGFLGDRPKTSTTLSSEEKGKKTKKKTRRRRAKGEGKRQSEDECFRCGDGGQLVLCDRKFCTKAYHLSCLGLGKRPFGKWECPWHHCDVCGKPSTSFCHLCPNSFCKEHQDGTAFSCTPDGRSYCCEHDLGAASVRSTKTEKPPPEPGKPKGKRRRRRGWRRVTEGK
Description: A major challenge in screening for small molecule inhibitors is that native NSD2 requires nucleosomes as a substrate ([17]). […] Chemical libraries were screened in 3-dose point quantitative high-throughput screening (qHTS) format ([43]) with the Methyltransferase-Glo (MTase-Glo™) methyltransferase bioluminescence assay ([44]). A number of counter and orthogonal assays were also developed to characterize the hits from the primary screen. Confirmed hits were validated with a radiolabeled SAM substrate-based NSD2 activity assay and further interrogated with binding studies by surface plasmon resonance (SPR), methyltransferase profiling, and activity assessments in U-2 OS cells. […] Overall the reaction conditions were very similar.

[2] = target: PRMT6 (Homo sapiens, UniProt Q96LA8); details: read-out: DA3003-1 IC50; inhibitor
PRMT6, sequence (Q96LA8 whole entry): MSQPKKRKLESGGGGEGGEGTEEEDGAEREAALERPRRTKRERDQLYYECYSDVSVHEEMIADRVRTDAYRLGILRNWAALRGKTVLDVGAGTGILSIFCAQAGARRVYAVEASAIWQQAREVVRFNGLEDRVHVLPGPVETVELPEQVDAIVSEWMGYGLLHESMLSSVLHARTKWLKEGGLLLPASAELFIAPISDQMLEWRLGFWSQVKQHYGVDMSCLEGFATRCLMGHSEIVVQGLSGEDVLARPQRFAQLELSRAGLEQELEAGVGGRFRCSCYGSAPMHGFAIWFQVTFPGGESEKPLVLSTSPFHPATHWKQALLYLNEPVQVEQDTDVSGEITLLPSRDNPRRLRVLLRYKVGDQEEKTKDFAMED

[3] = target: T2, PRMT4 (Homo sapiens, UniProt Q86X55); details: read-out: DA3003-1 IC50; inhibitor
T2 construct: gene CARM1
T2 sequence (Q86X55 whole entry): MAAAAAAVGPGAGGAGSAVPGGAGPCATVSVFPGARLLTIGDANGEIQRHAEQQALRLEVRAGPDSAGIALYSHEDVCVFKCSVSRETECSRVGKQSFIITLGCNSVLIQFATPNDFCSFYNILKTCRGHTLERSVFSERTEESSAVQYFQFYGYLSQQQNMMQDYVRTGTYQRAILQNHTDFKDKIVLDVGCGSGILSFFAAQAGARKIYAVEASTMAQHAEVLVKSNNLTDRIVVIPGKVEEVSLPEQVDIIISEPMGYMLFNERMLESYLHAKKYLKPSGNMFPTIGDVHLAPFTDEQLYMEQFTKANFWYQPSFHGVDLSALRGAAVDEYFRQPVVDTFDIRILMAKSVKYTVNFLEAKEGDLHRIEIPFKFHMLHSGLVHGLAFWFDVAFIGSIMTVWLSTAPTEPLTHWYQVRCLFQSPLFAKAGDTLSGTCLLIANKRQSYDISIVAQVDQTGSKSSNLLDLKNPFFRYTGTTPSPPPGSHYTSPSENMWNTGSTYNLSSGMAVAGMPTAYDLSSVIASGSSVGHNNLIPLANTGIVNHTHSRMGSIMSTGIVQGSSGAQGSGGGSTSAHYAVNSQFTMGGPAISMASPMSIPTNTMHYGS

[4] = target: T3, PRMT5/MEP50 Complex (Homo sapiens, UniProt O14744); assay: HotSpot [3H]SAM filter-binding methyltransferase assay; format: biochemical; details: histone H2A, […] SAM, pH […] DTT, […] °C, single experiment
T3 construct: coexpressed Flag-PRMT5 and His-MEP50, insect cell/baculovirus; with Methylosome protein WDR77
T3 sequence (O14744 2-637): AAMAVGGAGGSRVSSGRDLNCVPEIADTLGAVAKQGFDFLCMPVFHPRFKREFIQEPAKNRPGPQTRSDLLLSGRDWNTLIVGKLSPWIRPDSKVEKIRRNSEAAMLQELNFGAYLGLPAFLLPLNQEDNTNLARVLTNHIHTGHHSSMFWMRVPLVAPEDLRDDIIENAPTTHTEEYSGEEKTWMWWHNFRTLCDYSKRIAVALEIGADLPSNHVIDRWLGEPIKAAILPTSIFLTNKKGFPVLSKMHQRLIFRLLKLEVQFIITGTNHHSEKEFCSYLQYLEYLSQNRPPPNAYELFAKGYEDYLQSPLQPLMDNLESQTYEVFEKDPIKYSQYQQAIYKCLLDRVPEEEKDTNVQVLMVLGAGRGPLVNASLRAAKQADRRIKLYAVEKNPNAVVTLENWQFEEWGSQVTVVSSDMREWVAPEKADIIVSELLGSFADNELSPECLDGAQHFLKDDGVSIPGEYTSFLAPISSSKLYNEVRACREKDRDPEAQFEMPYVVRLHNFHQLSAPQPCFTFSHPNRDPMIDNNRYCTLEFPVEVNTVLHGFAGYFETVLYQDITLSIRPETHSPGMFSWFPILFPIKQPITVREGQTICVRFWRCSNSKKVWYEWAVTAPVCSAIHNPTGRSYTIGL
T3 sequence (Q9BQA1 2-342 partner): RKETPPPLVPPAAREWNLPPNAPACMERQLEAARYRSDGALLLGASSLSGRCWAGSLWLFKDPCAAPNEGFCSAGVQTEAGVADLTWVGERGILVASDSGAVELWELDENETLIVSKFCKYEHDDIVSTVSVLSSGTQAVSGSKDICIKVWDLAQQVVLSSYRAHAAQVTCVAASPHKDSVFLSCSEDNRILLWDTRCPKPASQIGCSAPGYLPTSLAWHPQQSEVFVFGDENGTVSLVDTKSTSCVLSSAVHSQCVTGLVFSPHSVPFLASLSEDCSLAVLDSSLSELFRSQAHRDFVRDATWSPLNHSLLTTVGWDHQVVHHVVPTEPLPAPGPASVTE

CC1(C)CCC(CN2CCN(c3ccc(C(=O)NS(=O)(=O)c4ccc(NCC5CCOCC5)c([N+](=O)[O-])c4)c(Oc4cnc5[nH]ccc5c4)c3)CC2)=C(c2ccc(Cl)cc2)C1 [ABT-199]
IC50 [1]: 15000 nM

O=C1C(Cl)=C(NCCN2CCOCC2)C(=O)c2ncccc21 [DA3003-1]
IC50 [2]: 1000 nM
IC50 [3]: 1400 nM

COc1cccc(-n2nc(C(=O)O)cc2-c2ccc(C3CCCCC3)c(Cl)c2)c1 [TC LPA5 4]
IC50 [4]: 330 nM
